According to PubChem BioAssay (NCI):
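How tested: cells in 96-well plates exposed to compound for 48 hours at five concentrations. The concentration for 50% growth inhibition is given as GI50. At the TGI there is no net growth.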

Assays:
Experiment in all cases: NCI-60 cell line screen, 48 h
A498 renal = system: A498 renal
CAKI-1 renal = system: CAKI-1 renal
HOP-62 NSCLC = system: HOP-62 NSCLC
HT29 colon = system: HT29 colon
MCF7 breast = system: MCF7 breast
MOLT-4 leukemia = system: MOLT-4 leukemia
NCI-H23 lung = system: NCI-H23 lung
OVCAR-8 ovarian = system: OVCAR-8 ovarian
SN12C renal = system: SN12C renal
UO-31 renal = system: UO-31 renal

Row | Structure (SMILES) | GI50 (A498 renal) | TGI (A498 renal) | GI50 (CAKI-1 renal) | TGI (CAKI-1 renal) | GI50 (HOP-62 NSCLC) | TGI (HOP-62 NSCLC) | GI50 (HT29 colon) | TGI (HT29 colon) | GI50 (MCF7 breast) | TGI (MCF7 breast) | GI50 (MOLT-4 leukemia) | TGI (MOLT-4 leukemia) | GI50 (NCI-H23 lung) | TGI (NCI-H23 lung) | GI50 (OVCAR-8 ovarian) | TGI (OVCAR-8 ovarian) | GI50 (SN12C renal) | TGI (SN12C renal) | GI50 (UO-31 renal) | TGI (UO-31 renal)
1 | COc1ccc(C(CC(=O)c2ccccc2)C(C(=O)c2ccccc2)C(c2ccc(OC)cc2)C2C(=O)NC(=S)NC2=O)cc1 (configuration not stated) | 3.19 µM | 23.2 µM | 2.53 µM | 11.8 µM | 21.1 µM | > 100 µM | 21.3 µM | > 100 µM | 16.1 µM | > 100 µM | 11.4 µM | > 100 µM | 14.3 µM | 46.6 µM | 13.5 µM | 45.6 µM | 12.8 µM | 45.2 µM | 7.32 µM | 26.1 µM
2 | NC(=S)N=Nc1c(O)c2ccccc2c2ccccc12 | 14.9 µM | 45.7 µM | 37.9 µM | > 100 µM | 2.31 µM | 7.87 µM | 19.3 µM | > 100 µM | 1.88 µM | 4.54 µM | 33.7 µM | > 73.5 µM | 2.26 µM | 6.1 µM | 4.32 µM | 22.7 µM | 1.73 µM | 3.47 µM | 3.26 µM | > 76.1 µM
3 | COc1ccccc1NS(=O)(=O)c1ccc2oc(SC(C)C)nc2c1 | 23.3 µM | 61.7 µM | 17 µM | 68.9 µM | 31.2 µM | > 100 µM | 22.2 µM | 64.1 µM | 15.5 µM | > 100 µM | 5.23 µM | 39.7 µM | 8.66 µM | > 100 µM | 25.6 µM | > 100 µM | 15.5 µM | 34.5 µM | 18.4 µM | 70.3 µM
4 | C=C(C)C(=O)O[C@@H]1C/C(C)=C\[C@H](OC(C)=O)C[C@](C)(O)/C=C2/OC(=O)C(COC(C)=O)=C21 | – | > 20.8 µM | – | 0.99 µM | – | > 100 µM | – | 0.687 µM | – | > 36.5 µM | – | 2.32 µM | – | 5.21 µM | – | 2.75 µM | – | 2.85 µM | – | 3.26 µM
5 | COc1ccc(Nc2nc3cc(N)cc(N)c3nc2-c2ccccc2)cc1OC | 11.7 µM | 55.7 µM | 18.3 µM | 66 µM | 34.8 µM | > 100 µM | 25.2 µM | 52.7 µM | 20.5 µM | 44.8 µM | 6.91 µM | > 100 µM | 26.3 µM | 80.1 µM | 33.6 µM | > 100 µM | 16.7 µM | 44.1 µM | 28.1 µM | > 100 µM
6 | C[C@]12CCNC(=O)C=C1CC[C@@H]1C2CC[C@@]2(C)C1CC[C@@H]2OC(=O)COc1ccc(N(CCCl)CCCl)cc1 (some centres not stated) | – | 36.1 µM | – | 23 µM | – | 22.2 µM | – | 27.5 µM | – | 14.8 µM | – | > 22.2 µM | – | 20.2 µM | – | 17.8 µM | – | 21.8 µM | – | 18.9 µM
7 | CCOC(=O)c1ccc2c(c1)[n+](=O)c(C(C)=O)c(C(F)(F)F)n2[O-] | 1.33 µM | 3.16 µM | 1.39 µM | 2.94 µM | 1.66 µM | 3.54 µM | 1.58 µM | 3.11 µM | 1.24 µM | 2.61 µM | 1.31 µM | 3.97 µM | 1.54 µM | 3.43 µM | 2.42 µM | 9.25 µM | 2.01 µM | 4.55 µM | 1.49 µM | 3.15 µM
8 | Nc1nc(N)c2cc(Sc3cccc(C(F)(F)F)c3)ccc2n1 | 2.17 µM | 14.4 µM | – | 16.7 µM | – | 15.9 µM | – | 8.16 µM | – | 16.2 µM | – | 6.08 µM | – | 16.4 µM | 0.713 µM | 4.55 µM | – | 15.7 µM | – | 9.84 µM
9 | COc1cc(NCCN=C(N)NC(N)=NC(C)C)c2ncccc2c1 | > 58.1 µM | > 100 µM | > 100 µM | > 100 µM | 28.5 µM | > 100 µM | 7.91 µM | > 100 µM | 0.0297 µM | 0.116 µM | 25 µM | > 100 µM | 3.25 µM | 15.7 µM | 22.6 µM | > 100 µM | 3.47 µM | 18.2 µM | > 100 µM | > 100 µM
10 | Cc1cn(-c2ccc(S(C)(=O)=O)cc2)c(-c2ccc(Cl)cc2)n1 | > 100 µM | > 100 µM | > 100 µM | > 100 µM | > 100 µM | > 100 µM | > 100 µM | > 100 µM | > 100 µM | > 100 µM | > 100 µM | > 100 µM | > 100 µM | > 100 µM | > 100 µM | > 100 µM | > 100 µM | > 100 µM | > 100 µM | > 100 µM
11 | Nc1nc(=O)n([C@@H]2CS[C@H](CO)O2)cc1F | > 100 µM | > 100 µM | > 100 µM | > 100 µM | > 100 µM | > 100 µM | > 100 µM | > 100 µM | > 100 µM | > 100 µM | > 100 µM | > 100 µM | > 100 µM | > 100 µM | > 100 µM | > 100 µM | > 100 µM | > 100 µM | > 100 µM | > 100 µM
12 | CN(C)c1ccc(C(c2ccc(Cl)cc2)c2ccc(N(C)C)cc2)cc1 | – | > 100 µM | – | > 100 µM | – | > 100 µM | – | > 100 µM | – | > 100 µM | – | > 100 µM | – | > 100 µM | – | > 100 µM | – | > 100 µM | – | > 100 µM
13 | Cc1ccc(-c2nc(-c3cn(C)c4ncccc34)cs2)cc1 | 0.277 µM | 8.24 µM | 2.27 µM | 15.2 µM | 7.71 µM | 22 µM | 2.32 µM | 8.51 µM | 2.39 µM | 15.9 µM | 4.24 µM | 30.3 µM | 7.12 µM | 31.3 µM | 8.99 µM | 38.9 µM | 5 µM | 22.8 µM | 8.96 µM | 40.5 µM
14 | CCOC(=O)c1cnn2c3ccccc3n(S(=O)(=O)c3ccc(OC)cc3)c12 | 0.209 µM | 0.764 µM | 0.204 µM | > 83.7 µM | 0.523 µM | > 100 µM | 0.31 µM | > 100 µM | 0.0998 µM | > 100 µM | 0.389 µM | > 100 µM | 0.393 µM | > 100 µM | 0.551 µM | > 100 µM | 0.625 µM | > 57.5 µM | 0.56 µM | > 78.7 µM
15 | Cc1cc(Nc2cc(N3CCN(C)CC3)nc(Sc3ccc(NC(=O)C4CC4)cc3)n2)n[nH]1 | 1.74 µM | 8.38 µM | 4.27 µM | > 10 µM | 2.99 µM | > 10 µM | 1.18 µM | > 10 µM | 0.492 µM | > 10 µM | 4.21 µM | > 10 µM | 3.19 µM | > 10 µM | 7.54 µM | > 10 µM | 3.59 µM | > 10 µM | 3.54 µM | > 10 µM
16 | COc1cc(/C=C/c2cc(/C=C/c3ccc(O)c(OC)c3)n(C(=O)Nc3ccc(Cl)cc3)n2)ccc1O | 1.84 µM | 5.13 µM | 0.401 µM | 36.6 µM | 0.537 µM | 1.85 µM | 2.58 µM | 6.26 µM | 0.486 µM | 3.39 µM | 0.374 µM | 3.47 µM | 0.494 µM | 2.36 µM | 0.641 µM | 3.31 µM | 0.455 µM | 21.6 µM | 0.375 µM | 3.16 µM
17 | Cc1cnc(Nc2ccc(N3CCN(C)CC3)cc2)nc1Nc1ccc(Cl)c(NS(=O)(=O)C(C)(C)C)c1 | 0.178 µM | 0.881 µM | 0.0621 µM | 2.09 µM | 0.262 µM | 3.73 µM | 0.0961 µM | 4.19 µM | 0.0795 µM | 2.49 µM | 0.419 µM | 11.6 µM | 0.379 µM | 6.55 µM | 0.652 µM | 8.1 µM | 0.542 µM | 12 µM | 0.0877 µM | 1.29 µM
